# Results: patent US20260265771A1, “METHODS OF INCREASING THE REGENERATION EFFICIENCY IN PLANTS” (Institute of Genetics and Developmental Biology Chinese …, priority 2022, published 2026)
# “And” between values parts separate entries of the source, which are not always exact repeats. Equal entries are not always repeated. “Also recorded” adds a separate entry of the source.
# Columns and labels:
# SIWIND1 promoter = SIWIND1 promoter activity (pSIWIND1::GUS) in cut hypocotyls; type: cell-based, tomato; settings: cut hypocotyls on MS medium with or without 1 nM REF1
# Experimental: (a) Induction of the SIWIND1 promoter activity at the wound sites of hypocotyl explants. Hypocotyl explants of 7-d-old pSIWIND1::GUS plants were cultured on MS medium with or without 1 nM REF1. Representative images of hypocotyls at indicated time after wounding are shown. Bars, 1 mm. […] Hypocotyls of 7-d-old seedlings of the indicated genotypes were cut and hypocotyl explants were cultured on MS medium for 9 h before gene expression analysis. Hypocotyls of undamaged seedlings were harvested as control. Data are mean±SD, n=3 biological repeats. (c and d) REF1-induced callus formation in WT and sIwind1 mutants. Hypocotyl explants were cultured on CIM with or without 1 nM REF1 for 14 d before callus phenotype was scored. Shown are representative callus images (c) and quantification of the callus projection area (d). […] Hypocotyl explants were cultured on CIM for 14 d and then transferred to SIM with or without 1 nM REF1 for 21 d before shoot organogenesis phenotype was scored. […] Hypocotyl explants were cultured on CIM for 14 d before callus phenotype was scored. Shown are representative callus images (g) and quantification of the callus projection area (h). […] Hypocotyl explants were cultured on CIM for 14 d and then transferred to SIM for 21 d before shoot organogenesis phenotype was scored. […] In (h) and (j), statistical significance was determined by a student's t test (***p<0.001, **p<0.01, *p<0.05). […]
# [1] = test system: hypocotyl explants of tomato cultivar Ailsa Craig; test: Shoot regeneration of tomato hypocotyl explants on shoot inducing medium (SIM); type: cell-based
# Experimental: FIG. 8—Hypocotyl explants of wild-type (WT) Ailsa Craig and prr mutants cultured in the presence or absence of SIPEP (REF1) at 1 nM in a shoot inducing medium for 21 days.
# Relative regeneration frequency was determined by counting the number of regenerated shoots and calculating the average for each group, the average of each group was then divided by the average of the control group.
# The number of hypocotyls means explants with varying numbers of regenerated shoots.
# To test whether SIPEP (REF1) could rescue shoot regeneration defects in prr mutants were cultured in shoot inducing medium (SIM) in the presence and absence of 1 nM REF1. Shoot regeneration was then scored after 21 days.
# Relative regeneration frequency was determined by counting the number of regenerated shoots and calculating the average for each group, the average of each group was then divided by the average of the WT-Mock group.
# ‘The number of hypocotyls’ means explants with different number of regenerated shoots (0, 1, 2, 3 and ≥4) in each of the genotypes (WT, prr-1, prr-2).
# Shoot regeneration was also measured in RER knock out mutants (rer-1 and rer-3) compared to wild type (WT) tomato plants (Ailsa Craig) in the presence and absence of SIPEP (REF1).
# ectodomains of RER = test: Pull-down assay with HA-Flag-tagged RER ectodomains and biotinylated peptides; type: binding, tomato; settings: biotinylated peptide
# Chain of ectodomains of RER (as listed by the source): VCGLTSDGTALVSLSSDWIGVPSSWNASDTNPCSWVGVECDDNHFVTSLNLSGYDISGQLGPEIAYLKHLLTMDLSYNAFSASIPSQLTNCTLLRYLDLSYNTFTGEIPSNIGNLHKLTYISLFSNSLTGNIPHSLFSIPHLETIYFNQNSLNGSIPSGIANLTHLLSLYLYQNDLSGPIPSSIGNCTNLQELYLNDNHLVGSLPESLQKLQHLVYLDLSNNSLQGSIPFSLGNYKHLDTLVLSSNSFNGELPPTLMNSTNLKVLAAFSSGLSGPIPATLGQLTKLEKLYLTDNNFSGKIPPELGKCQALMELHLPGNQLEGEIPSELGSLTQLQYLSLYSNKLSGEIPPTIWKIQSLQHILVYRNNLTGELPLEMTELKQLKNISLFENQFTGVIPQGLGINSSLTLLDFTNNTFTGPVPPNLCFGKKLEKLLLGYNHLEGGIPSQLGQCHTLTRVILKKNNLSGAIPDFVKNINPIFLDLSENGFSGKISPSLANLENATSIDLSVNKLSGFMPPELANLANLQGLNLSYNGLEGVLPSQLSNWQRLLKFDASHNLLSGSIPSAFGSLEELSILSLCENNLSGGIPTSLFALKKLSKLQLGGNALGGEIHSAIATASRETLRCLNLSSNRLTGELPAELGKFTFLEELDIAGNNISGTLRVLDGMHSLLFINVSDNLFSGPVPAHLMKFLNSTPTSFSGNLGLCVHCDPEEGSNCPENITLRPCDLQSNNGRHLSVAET
# LA1777 tomatoes = test: Shoot regeneration of recalcitrant wild tomato LA1777; type: cell-based, S. habrochaites; settings: LA1777, 1 nM REF1 vs REF1 absent
# Experimental: (a) photos of LA1777 grown in the presence and absence of 1 nM REF1. (b) relative regeneration frequency of LA1777 grown in the presence and absence of 1 nM REF1. (c) number of hypocotyl of LA1777 grown in the presence and absence of 1 nM REF1.
# (a) photos of control LA1777 tomatoes, PRR expressing LA1777 tomatoes, RER expressing LA1777 tomatoes, and PRR and RER expressing LA1777 tomatoes exposed to 1 nM REF1 for 25 days, or absence of REF1 (mock). (b) relative regeneration frequency of control LA1777 tomatoes, PRR expressing LA1777 tomatoes, RER expressing LA1777 tomatoes, and PRR and RER expressing LA1777 tomatoes exposed to 1 nM REF1 for 25 days, or absence of REF1 (mock).
# The effect of exogenously applied REF1 in a shoot inducing growth medium was investigated in LA1777 tomatoes by growing LA1777 tomatoes in the presence and absence of 1 nM REF1. […] Likewise, FIG. 20B shoes that relative regeneration frequency of LA1777 was 6-fold higher when grown in the presence of REF1 compared to when REF1 was absent, similarly, the number of hypocotyl was also higher in the presence of REF1.
# [2] = WT, prr-1 and prr-2, SIM with 1 nM REF1, 21 days
sequence,measurement,setting,value
"ATDRRGRPPSRPKVGSGPPPQNN (listed as Solanum lycopersicum) [REF1, 23 amino acid tomato peptide cleaved from precursor PROSIPEP]",SIWIND1 promoter activity / expression,SIWIND1 promoter,enhanced; also recorded: promoting SIWIND1 expression
same,shoot regeneration,"[1]; WT Ailsa Craig, SIM with 1 nM REF1 vs without, 21 days",increased; also recorded: highest
same,number of hypocotyl,[1]; [2],increased
same,relative regeneration frequency,[1]; [2],increased
same,shoot regeneration,"[1]; prr-1 and prr-2 mutants, SIM with 1 nM REF1, 21 days",rescued
same,"REF1 induced shoot regeneration (shoot regeneration frequency, number of hypocotyl)","[1]; rer-1 and rer-3 knockouts, presence vs absence of REF1",did not lead to any increase; also recorded: defective
same,binding to RER ectodomain (pull-down),ectodomains of RER,binds
same,number of hypocotyl,LA1777 tomatoes,higher
same,"relative regeneration frequency, increase",LA1777 tomatoes,~ 6 fold and 6 fold
same,shoot regeneration,LA1777 tomatoes,greater shoot regeneration; also recorded: promotes shoot regeneration
